The source of these data is publication PMC6151660 (Molecules : A Journal of Synthetic Chemistry and Natural …, 2017).

For data set [1], the system named is Mycobacterium tuberculosis H37Rv. Briefly: microbe, parasite or virus in culture. Conditions: for activity at 1 µM / activity at 50 µM / activity at 100 µM: 120 h. Format: cell-based.
In a further data set the test system is SH-SY5Y cells. The experiment in a line: MPP+-induced cytotoxicity in SH-SY5Y cells (neuroprotection). As to conditions: 1000 μM MPP+ for 48 h.
Data set [2] concerns M. tuberculosis H37RvMA pMSP12:GFP. The experiment in a line: microbe, parasite or virus in culture. Format: cell-based. Conditions: Mycobacterium tuberculosis.
Where [3] appears, read: 1 µM compound, day 5, read-out: % M. tuberculosis Growth, Day 5.
Where [4] appears, read: 50 µM compound, day 5, read-out: % M. tuberculosis Growth, Day 5.
Setting [5] is: 100 µM compound, day 5, read-out: % M. tuberculosis Growth, Day 5.
The mark [6] stands for this setting: read-out: % M. tuberculosis Growth, Day 5.

In brackets after ≈: the same amount, converted by molar mass. Like-named read-outs stand apart in the source and are kept apart here.

Consider `O=c1ccc2ccc(OCc3ccc(Br)cc3)cc2o1` [CM1], for which the activity at 1 µM in data set [1] (setting [3]) was 96.3%. For the same compound, the activity at 50 µM in data set [1] (setting [4]) stood at 79.8%. Besides, the activity at 100 µM in data set [1] (setting [5]) was found to be 63.6%.
On the same counts, the results for `Cc1cc(=O)oc2cc(OCc3ccc(Br)cc3)ccc12` [CM2] are 90%, 40.9% and 33.2%.
The corresponding values for `Cc1c(Cl)c(=O)oc2cc(OCc3ccc(Br)cc3)ccc12` [CM3] are 97.8%, 96.1% and 92.9%.
The corresponding values for `Cc1c(C#N)c(=O)oc2cc(OCc3ccc(Br)cc3)ccc12` [CM4] are 95.3%, 44.6% and 33.5%.
In the case of `O=c1cc(C(F)(F)F)c2ccc(OCc3ccc(Br)cc3)cc2o1` [CM5], the activity at 1 µM in data set [1] (setting [3]) came out at 107%. Moreover, the activity at 50 µM in data set [1] (setting [4]) is 65%. The activity at 100 µM in data set [1] (setting [5]) was determined as 56.1%.
On the same counts, the results for `O=c1ccc2ccc(OCCN3CCC(Cc4ccccc4)CC3)cc2o1` [CM6] are 98.2%, 52.7% and 15.4%.
On the same counts, the results for `Cc1cc(=O)oc2cc(OCCN3CCC(Cc4ccccc4)CC3)ccc12` [CM7] are 95.1%, 29.5% and 8.18%.
The corresponding values for `O=c1ccc2ccc(OCCN3CCN(Cc4ccc(Br)cc4)CC3)cc2o1` [CM11] are 95.2%, 7.05% and 4.46%.
Consider `Cc1c(Cl)c(=O)oc2cc(OCCN3CCN(Cc4ccc(Br)cc4)CC3)ccc12` [CM13], for which, in data set [1] (setting [3]), the activity at 1 µM was found to be 97%. Further, in data set [1] (setting [4]), the activity at 50 µM turned out to be 42.5%. In data set [1] (setting [5]), the activity at 100 µM turned out to be 32.1%.
In the case of `O=c1ccc2ccc(OCc3ccccc3)cc2o1` [CM16], in data set [1] (setting [6]), the activity at 1 µM is 97.5%, the activity at 50 µM stood at 72.7% and the activity at 100 µM came out at 50.7%.
The corresponding values for `Cc1cc(=O)oc2cc(OCc3ccccc3)ccc12` [CM17] are 97.6%, 28.6% and 19.8%.
Consider `Cc1c(Cl)c(=O)oc2cc(OCc3ccccc3)ccc12` [CM18], for which, in data set [1] (setting [3]), the activity at 1 µM stood at 97.3%. Moreover, the activity at 50 µM in data set [1] (setting [4]) was found to be 87.9%. Besides, the activity at 100 µM in data set [1] (setting [5]) was 75.5%.
On the same counts, the results for `Cc1c(C#N)c(=O)oc2cc(OCc3ccccc3)ccc12` [CM19] are 98.3%, 66.9% and 55.4%.
Turning to `C[n+]1ccc(-c2ccccc2)cc1` [MPP^+, 1-methyl-4-phenyl pyridinium, reference compound], the “cell viability after MPP+ without test compound” value in the data set on SH-SY5Y cells was found to be 51.42 ± 3.18%.
Turning to `CO[C@H]1/C=C/O[C@@]2(C)Oc3c(C)c(O)c4c(O)c(c(/C=N/N5CCN(C)CC5)c(O)c4c3C2=O)NC(=O)/C(C)=C\C=C\[C@H](C)[C@H](O)[C@@H](C)[C@@H](O)[C@@H](C)[C@H](OC(C)=O)[C@@H]1C` [RIF, rifampicin, reference compound], the MIC in data set [2] amounted to 0.0274 µM (≈ 0.0225 µg/mL). In data set [1] (read-out: inhibition of bacterial growth), the inhibition at 6 µM is 100%.

As usually defined, the inhibition is the relative decrease from the control value, in per cent.
